Source: PubChem BioAssay AID248 (DTP/NCI, 2004)
Several values for one entry are separate records, joined by “and”; a condition that tells them apart may be missing. Equal values may be shown once. Inconclusive results and toxic doses are left out. Rule as the data show it: active = T/C of 150% or more; inactive = T/C below 125%.

Tested on: L1210 leukemia ip in BDF1 mice, survival T/C
Test: NCI In Vivo Anticancer Drug Screen. Data for tumor model L1210 Leukemia (intraperitoneal) in B6D2F1 (BDF1) mice
Conditions: endpoint: mean survival time, higher = longer survival
Outline: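 Antitumor effect is assessed in tumor-bearing animals. Survival in the compound arm is compared with a vehicle-dosed control arm and expressed as their quotient.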

[1] = dose: 25.0 mg/kg/injection, schedule: Q01DX009 (ip), vehicle: saline
[2] = dose: 50.0 mg/kg/injection, schedule: Q01DX009 (ip), vehicle: saline
[3] = dose: 200.0 mg/kg/injection, schedule: Q01DX009 (ip), vehicle: saline
[4] = dose: 400.0 mg/kg/injection, schedule: Q01DX009 (ip), vehicle: saline
[5] = dose: 12.5 mg/kg/injection, schedule: Q01DX009 (ip), vehicle: saline
[6] = dose: 100.0 mg/kg/injection, schedule: Q04DX003 (ip), vehicle: Klucel (hydroxypropylcellulose) (HPC)
[7] = dose: 200.0 mg/kg/injection, schedule: Q04DX003 (ip), vehicle: Klucel (hydroxypropylcellulose) (HPC)
[8] = dose: 400.0 mg/kg/injection, schedule: Q04DX003 (ip), vehicle: Klucel (hydroxypropylcellulose) (HPC)
[9] = dose: 100.0 mg/kg/injection, schedule: Q01DX001 (ip), vehicle: saline
[10] = dose: 100.0 mg/kg/injection, schedule: Q01DX009 (ip), vehicle: Klucel (hydroxypropylcellulose) (HPC)
[11] = dose: 100.0 mg/kg/injection, schedule: Q01DX009 (ip), vehicle: saline
[12] = dose: 200.0 mg/kg/injection, schedule: Q01DX001 (ip), vehicle: saline
[13] = dose: 200.0 mg/kg/injection, schedule: Q01DX009 (ip), vehicle: Klucel (hydroxypropylcellulose) (HPC)
[14] = dose: 400.0 mg/kg/injection, schedule: Q01DX001 (ip), vehicle: saline
[15] = dose: 50.0 mg/kg/injection, schedule: Q01DX009 (ip), vehicle: Klucel (hydroxypropylcellulose) (HPC)
[16] = dose: 100.0 mg/kg/injection, schedule: Q01DX001 (ip), vehicle: carboxymethylcellulose (CMC)
[17] = dose: 200.0 mg/kg/injection, schedule: Q01DX001 (ip), vehicle: carboxymethylcellulose (CMC)
[18] = dose: 400.0 mg/kg/injection, schedule: Q01DX001 (ip), vehicle: carboxymethylcellulose (CMC)

Measured: T/C

CCCC[As](=O)(O)C(C)C
inactive: dose: 1.56 mg/kg/injection, schedule: Q01DX009 (ip), vehicle: saline 100 % of control | dose: 3.12 mg/kg/injection, schedule: Q01DX009 (ip), vehicle: saline 100 % of control | dose: 3.12 mg/kg/injection, schedule: Q04DX003 (ip), vehicle: saline 112 % of control | dose: 6.25 mg/kg/injection, schedule: Q04DX002 (ip), vehicle: saline 120 % of control | dose: 6.25 mg/kg/injection, schedule: Q04DX003 (ip), vehicle: saline 107 % of control | dose: 12.5 mg/kg/injection, schedule: Q01DX001 (ip), vehicle: saline 112 % of control | dose: 12.5 mg/kg/injection, schedule: Q04DX002 (ip), vehicle: saline 110 % of control | dose: 12.5 mg/kg/injection, schedule: Q04DX003 (ip), vehicle: saline 118 % of control | dose: 25.0 mg/kg/injection, schedule: Q01DX001 (ip), vehicle: saline 117 % of control | [1] 106 % of control and 111 % of control | dose: 25.0 mg/kg/injection, schedule: Q04DX003 (ip), vehicle: saline 105 % of control | dose: 50.0 mg/kg/injection, schedule: Q01DX001 (ip), vehicle: saline 103 % of control | dose: 50.0 mg/kg/injection, schedule: Q04DX002 (ip), vehicle: saline 117 % of control

CCc1ccc(C(=O)NN)cc1
inactive: [1] 95 % of control | [2] 105 % of control and 113 % of control | [3] 117 % of control | [4] 123 % of control

CC(=O)OC(CC(=O)CC(O)(C(F)(F)F)C(F)(F)F)(C(F)(F)F)C(F)(F)F
inactive: dose: 6.25 mg/kg/injection, schedule: Q01DX009 (ip), vehicle: saline 94 % of control | [5] 91 % of control | [1] 88 % of control

CCOC(=O)c1cnc2c(cnn2C(C)C)c1NN
inactive: [6] 99 % of control | [7] 99 % of control | [8] 96 % of control

COc1cc(C(=O)O)cc(OC)c1OC
inactive: dose: 100.0 mg/kg/injection, schedule: Q04DX002 (ip), vehicle: other 103 % of control | dose: 200.0 mg/kg/injection, schedule: Q04DX002 (ip), vehicle: other 98 % of control | dose: 400.0 mg/kg/injection, schedule: Q04DX002 (ip), vehicle: other 98 % of control

c1cc[n+](CC[n+]2ccccc2)cc1
inactive: [9] 97 % of control | [10] 100 % of control | [11] 101 % of control | [6] 107 % of control | [12] 103 % of control | [13] 103 % of control | [3] 93 % of control | [7] 101 % of control | [14] 94 % of control | dose: 400.0 mg/kg/injection, schedule: Q01DX009 (ip), vehicle: Klucel (hydroxypropylcellulose) (HPC) 91 % of control | [4] 90 % of control | [8] 98 % of control

CCOC(=O)/C=C1\CC2c3cc(OC)c(OC)cc3CCN2CC1CC (stereo not given)
inactive: [15] 93 % of control | [10] 96 % of control | [13] 96 % of control

CN(C)c1ccc2c(c1)Cc1cc(N=C3C=CC(=O)O3)ccc1-2
inactive: [1] 100 % of control | dose: 25.0 mg/kg/injection, schedule: Q04DX003 (ip), vehicle: acetone 95 % of control | [2] 97 % of control | dose: 50.0 mg/kg/injection, schedule: Q04DX003 (ip), vehicle: acetone 92 % of control | [9] 89 % of control | [11] 94 % of control | dose: 100.0 mg/kg/injection, schedule: Q04DX003 (ip), vehicle: acetone 88 % of control

Cc1ccc(/C(O)=C\C(=S)SS)cc1
inactive: dose: 100.0 mg/kg/injection, schedule: Q01DX001 (ip), vehicle: Klucel (hydroxypropylcellulose) (HPC) 108 % of control | [11] 100 % of control | [6] 97 % of control | dose: 200.0 mg/kg/injection, schedule: Q01DX001 (ip), vehicle: Klucel (hydroxypropylcellulose) (HPC) 100 % of control | [3] 102 % of control | [7] 90 % of control | dose: 400.0 mg/kg/injection, schedule: Q01DX001 (ip), vehicle: Klucel (hydroxypropylcellulose) (HPC) 97 % of control | [4] 100 % of control | [8] 92 % of control

CC/C(=N\NC(N)=O)C(OC)OC
inactive: [16] 108 % of control | [17] 86 % of control | [18] 92 % of control

COC(=O)c1ccccc1NCCO
inactive: [9] 101 % of control | [12] 107 % of control | [14] 101 % of control

O=[N+]([O-])/C=C/c1ccccc1Br
inactive: dose: 18.75 mg/kg/injection, schedule: Q04DX003 (ip), vehicle: Klucel (hydroxypropylcellulose) (HPC) 96 % of control | dose: 37.5 mg/kg/injection, schedule: Q04DX003 (ip), vehicle: Klucel (hydroxypropylcellulose) (HPC) 102 % of control | dose: 75.0 mg/kg/injection, schedule: Q04DX003 (ip), vehicle: Klucel (hydroxypropylcellulose) (HPC) 104 % of control

Cc1cc(C)[s+]s1
inactive: [5] 94 % of control | [1] 100 % of control | [2] 103 % of control and 91 % of control | dose: 100.0 mg/kg/injection, schedule: Q04DX003 (ip), vehicle: saline 106 % of control | dose: 200.0 mg/kg/injection, schedule: Q04DX003 (ip), vehicle: saline 97 % of control

O=C(O)Cc1ccc(I)cc1
inactive: dose: 100.0 mg/kg/injection, schedule: Q04DX003 (ip), vehicle: gum acacia 98 % of control | dose: 200.0 mg/kg/injection, schedule: Q04DX003 (ip), vehicle: gum acacia 96 % of control | dose: 400.0 mg/kg/injection, schedule: Q04DX003 (ip), vehicle: gum acacia 94 % of control

Nc1ccc(-c2ccc(NC(=O)C(=O)O)cc2)cc1
inactive: dose: 12.5 mg/kg/injection, schedule: Q04DX003 (ip), vehicle: Klucel (hydroxypropylcellulose) (HPC) 101 % of control | dose: 25.0 mg/kg/injection, schedule: Q01DX009 (ip), vehicle: Klucel (hydroxypropylcellulose) (HPC) 95 % of control | dose: 25.0 mg/kg/injection, schedule: Q04DX003 (ip), vehicle: Klucel (hydroxypropylcellulose) (HPC) 97 % of control | [15] 97 % of control | dose: 50.0 mg/kg/injection, schedule: Q04DX003 (ip), vehicle: Klucel (hydroxypropylcellulose) (HPC) 111 % of control | [10] 100 % of control | [6] 111 % of control

O=C(Nc1ccc(Cl)c(Cl)c1)Sc1ccc(Cl)cc1
inactive: dose: 25.0 mg/kg/injection, schedule: Q01DX009 (ip), vehicle: saline with Tween-80 100 % of control | dose: 50.0 mg/kg/injection, schedule: Q01DX009 (ip), vehicle: saline with Tween-80 103 % of control | dose: 100.0 mg/kg/injection, schedule: Q01DX009 (ip), vehicle: saline with Tween-80 101 % of control

Cc1cccc(NC(=S)NCCc2ccccn2)c1
inactive: dose: 100.0 mg/kg/injection, schedule: Q04DX002 (ip), vehicle: saline with Tween-80 97 % of control | dose: 200.0 mg/kg/injection, schedule: Q04DX002 (ip), vehicle: saline with Tween-80 97 % of control

COc1ccc(OCC(=O)N2CCCCC2)cc1
inactive: dose: 100.0 mg/kg/injection, schedule: Q01DX009 (ip), vehicle: carboxymethylcellulose (CMC) 92 % of control | dose: 200.0 mg/kg/injection, schedule: Q01DX009 (ip), vehicle: carboxymethylcellulose (CMC) 106 % of control

O=C(C=P(c1ccccc1)(c1ccccc1)c1ccccc1)c1ccc(Br)cc1
inactive: dose: 50.0 mg/kg/injection, schedule: Q01DX001 (ip), vehicle: carboxymethylcellulose (CMC) 99 % of control | [16] 99 % of control | [17] 96 % of control | [18] 99 % of control

c1ccc(CSc2ncnc3nncnc23)cc1
inactive: dose: 5.0 mg/kg/injection, schedule: Q01DX001 (ip), vehicle: other 104 % of control | dose: 10.0 mg/kg/injection, schedule: Q01DX001 (ip), vehicle: other 95 % of control | dose: 20.0 mg/kg/injection, schedule: Q01DX001 (ip), vehicle: other 110 % of control | dose: 40.0 mg/kg/injection, schedule: Q01DX001 (ip), vehicle: other 101 % of control | dose: 80.0 mg/kg/injection, schedule: Q01DX001 (ip), vehicle: other 98 % of control | dose: 100.0 mg/kg/injection, schedule: Q01DX001 (ip), vehicle: other 89 % of control | dose: 200.0 mg/kg/injection, schedule: Q01DX001 (ip), vehicle: other 101 % of control

CC(Br)CN1CCOCC1 (stereo not given)
inactive: [9] 103 % of control
